Laboratory results: US20070048225A1, “NK3 receptor in vivo assay” (priority 2005, published 2007)
Numbered stars: 1 amine (or outer) side, 2 acyl side, 3 side chain; on linkers, the order of the positions; unused ones are H or OH. Square brackets hold non-standard residues; d marks the D form. Peptide text beside a SMILES is read from it. NMeF = CN[C@@H](Cc1ccccc1)C(=O)O; Suc = O=C(CCC(=O)[*:2])[*:1]

Assays:
NK3-receptor = target: T1, NK3-receptor (Homo sapiens, UniProt P29371); details: double blind placebo controlled; Meltzer et al. 2004; cited from earlier work
T1 construct: active in a double blind placebo controlled clinical trial in schizophrenia patients; host or cells: schizophrenia patients (Meltzer et al., Am J Psych 161:975-84, 2004)
T1 sequence (P29371 1-465): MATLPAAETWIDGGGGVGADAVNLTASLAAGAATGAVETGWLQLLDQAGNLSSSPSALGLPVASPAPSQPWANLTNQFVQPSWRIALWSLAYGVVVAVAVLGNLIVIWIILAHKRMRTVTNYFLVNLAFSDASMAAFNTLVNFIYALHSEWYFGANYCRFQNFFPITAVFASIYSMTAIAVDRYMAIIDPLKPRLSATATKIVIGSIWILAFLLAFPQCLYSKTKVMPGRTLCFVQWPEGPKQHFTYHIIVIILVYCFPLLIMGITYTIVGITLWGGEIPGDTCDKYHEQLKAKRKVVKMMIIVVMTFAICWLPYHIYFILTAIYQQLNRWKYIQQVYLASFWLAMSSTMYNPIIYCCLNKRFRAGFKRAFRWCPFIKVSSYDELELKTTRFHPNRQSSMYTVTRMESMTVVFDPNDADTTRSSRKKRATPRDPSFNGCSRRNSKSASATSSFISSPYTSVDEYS

NK3 receptor = assay: Senktide-induced locomotor activity in gerbils (total distance traveled); format: in vivo, Mongolian gerbil; details: senktide 0.01, 0.03 or 0.1 nM/5 μL ICV tested, effect at 0.1 nM/5 μL, activity measured for 90 minutes, FIG. 1
Method: Male and female Mongolian gerbils [Biological Research Laboratories, 4414 Füllinsdorf, Switzerland] weighing between 40-70 g were used. Gerbils were housed four per cage for approximately four to seven days following arrival in the laboratory colony. The gerbils had ad libitum access to tap water and lab chow in the home cage. The animal quarters were maintained on a 12:12 hour light-dark cycle with light onset at 6 a.m. and with both temperature (21-23° C.) and humidity (55-65%) regulated. All testing was conducted during the light phase of the light-dark cycle. All procedures described here received prior approval from the City of Basel Cantonal Animal Protection Committee based on adherence to federal and local regulations. The experiments were carried out in an animal colony supervised by the veterinary staff of Hoffmann-La Roche Ltd.
The antagonists were prepared immediately prior to use (vehicle 0.3% Tween-80/saline). […]
The incision was closed using a clip suture and gerbils were placed into perspex boxes on recovery of their righting reflex and then placed into locomotor activity boxes (Accuscan instruments, USA). Activity was then measured automatically for a period of 90 minutes.
Data were analysed using a One way anova followed by Dunnet multiple comparison test or t-test (one-tailed) where appropriate (Statistica, Statsoft).

Compound | activity in clinical trial in schizophrenia patients (NK3-receptor) | total distance traveled (locomotor activity) (NK3 receptor)
CC(=O)N(C)C1(c2ccccc2)CCN(CCC[C@]2(c3ccc(Cl)c(Cl)c3)CCCN(C(=O)c3ccccc3)C2)CC1 [SR142801] | active | –
CSCC[C@H](NC(=O)[C@H](CC(C)C)NC(=O)CNC(=O)[C@H](Cc1ccccc1)N(C)C(=O)[C@H](Cc1ccccc1)NC(=O)[C@H](CC(=O)O)NC(=O)CCC(=O)O)C(N)=O [Senktide, N-(3-carboxy-1-oxopropyl)-L-α-aspartyl-L-phenylalanyl-N-methyl-L-phenylalanylglycyl-L-leucyl-L-methioninamide] (Suc-DF[NMeF]GLM-NH2) | – | significant increase
